From patent US12668599B2, “Heterobifunctional compounds and methods of treating disease” (Halda Therapeutics OpCo, Inc., priority 2023, dated 2026)

Key:
[1] = system: T-Rex 293 cell line SC3 cells lacking increased expression of androgen receptor protein; assay: Cellular growth inhibition, T-Rex 293 SC3 cells without doxycycline (CellTiter-Glo 2.0, 72 hours); format: cell-based; settings: T-Rex 293 SC3 cells not exposed to doxycycline (no increased androgen receptor expression)
Description: (§1) Ability of the test compounds to inhibit proliferation of the foregoing cell types was evaluated according to the procedures set forth below.
(§2) The doxycycline-inducible androgen receptor protein expressing cell line was established using the following protocol: T-Rex 293 cells were purchased from Invitrogen (Cat #R71007) and transfected using Lipofectamine 2000 with the wild-type androgen receptor protein sequence cloned into the pcDNA4/TO vector. Transfected cells were selected using 400 μg/mL Zeocin (Invitrogen Cat #R25001). Following selection, single clones were raised and maintained in Dulbecco's Modified Eagle Medium (DMEM) supplemented with 10% w/w Tetracycline-free fetal bovine serum (FBS) and 250 μg/mL Zeocin. Clones were analyzed for expression of androgen receptor protein in the presence and absence of 10 ng/ml doxycycline (Sigma Cat #D9891), and a single doxycycline-inducible clone (hereinafter “SC3”) was selected for use in downstream assays.
(§3) The SC3 cells were seeded on poly-D-lysine coated, black clear-bottom 384-well plates at 2500/well, in 25 μL Phenol Red Free Dulbecco's Modified Eagle Medium (DMEM) supplemented with 10% w/w charcoal-dextran treated fetal bovine serum (FBS) and 1% w/w pen-strep, with or without 10 ng/ml doxycycline. Pen-Strep is a commercially available mixture of penicillin G and streptomycin, which is used in mammalian cell culture media to prevent bacterial contamination. Phenol Red Free Dulbecco's Modified Eagle Medium (DMEM) supplemented with 10% w/w charcoal-dextran treated fetal bovine serum (FBS) and 1% w/w pen-strep, with or without 10 ng/mL doxycycline is herein referred to as Treatment Medium. Following seeding of cells in the plates, the plates were spun at 300×g for 30 seconds, then equilibrated to room temperature for 30 minutes, and then deposited in a humidified tissue culture incubator maintained at 37° C. with 5% CO2.
(§4) At 24 hours after seeding of the cells, dilutions of test compound were prepared in DMSO and dissolved in Treatment Medium, to achieve a final DMSO concentration of 0.5% w/w, thereby providing the Test Compound Solution. A 25 μL aliquot of the Test Compound Solution was added to cells in the well plates. An equal volume of a solution containing DMSO and Treatment Medium was used as a negative control. Following treatment of cells with Test Compound Solution or said equal volume of a solution containing DMSO and Treatment Medium, the plates were spun at 300×g for 30 seconds, and then left in an incubator for 72 hours.
(§5) At the end of the treatment duration, cell viability was quantified with CellTiter-Glo 2.0 reagent (Promega Cat #G9243). For this purpose, plates were equilibrated to room temperature for 30 minutes, and then 25 μL of CellTiter-Glo 2.0 reagent was added to cells in the plate wells. Plates were then agitated on a shaker for two minutes at 500 rpm and subsequently incubated at room temperature for 10 minutes. Following incubation, the plates were spun at 3000×g for 30 seconds, then sealed with an optical adhesive cover, and luminescence readings were measured with an En Vision Plate Reader.
(§6) Data was normalized using zero luminescence for baseline. A four-parameter non-linear regression curve fit was applied to dose-response data in GraphPad Prism data analysis software to determine the half-maximal growth inhibitory concentration (GI50) for each test compound.

[2] = system: T-Rex 293 cell line SC3 cells having increased expression of androgen receptor protein due to exposure to doxycycline; assay: Cellular growth inhibition, T-Rex 293 SC3 cells with doxycycline-induced androgen receptor (CellTiter-Glo 2.0, 72 hours); format: cell-based; settings: T-Rex 293 SC3 cells with 10 ng/ml doxycycline (increased androgen receptor expression), 72 hours, CellTiter-Glo 2.0
Description: as §1, §2, §3, §4, §5, §6

VCaP cells = assay: Cellular growth inhibition assay for VCaP cells (CellTiter-Glo 2.0, 72 hours); format: cell-based, human; settings: CellTiter-Glo 2.0
Description: Exemplary compounds were tested for ability to inhibit the proliferation of VCaP cells. VCap cells are a commercially available human prostate cancer cell line.
VCaP cells were purchased from American Type Cell Culture (ATCC Cat #CRL2876) and then seeded on poly-D-lysine coated, black clear-bottom 384-well plates at 5000/well in 25 μL Dulbecco's Modified Eagle Medium (DMEM) supplemented with 10% w/w Fetal bovine serum (FBS) and 1% w/w Pen-Strep. Pen-Strep is a commercially available mixture of penicillin G and streptomycin, which is used in mammalian cell culture media to prevent bacterial contamination. Dulbecco's Modified Eagle Medium (DMEM) supplemented with 10% w/w fetal bovine serum (FBS) and 1% w/w Pen-Strep is herein referred to as Treatment Medium. Following seeding of cells in the plates, the plates were spun at 300×g for 30 seconds, then equilibrated to room temperature for 30 minutes, and then deposited in a humidified tissue culture incubator maintained at 37° C. with 5% CO2.
as §4, §5, §6

SMILES	GI50 (VCaP cells; Homo sapiens, VCaP, 72 h) [nM]	GI50 (VCaP cells; 72 hours) [nM]	GI50 ([1]; 72 h) [nM]	GI50 [2] [nM]	GI50 [1] [nM]
COC[C@@H]1N=C(c2ccc(C#CC3CC4(C3)CN(c3ccc(C(=O)N[C@H]5CC[C@H](Oc6ccc(C#N)c(OC)c6)CC5)nn3)C4)cc2)c2c(sc(C)c2C)-n2c(C)nnc21 [Compound I-32, N-[4-(4-cyano-3-methoxy-phenoxy)cyclohexyl]-6-[6-[2-[4-[(9R)-9-(methoxymethyl)-4,5,13-trimethyl-3-thia-1,8,11,12-tetrazatricyclo[8.3.0.0^2,6]trideca-2 (6),4,7,10,12-pentaen-7-yl]phenyl]ethynyl]-2-azaspiro[3.3]heptan-2-yl]pyridazine-3-carboxamide]	< 500	–	< 500	< 500	–
COc1cc(O[C@H]2CC[C@H](NC(=O)c3ccc(N4CC(F)(F)C5(CCN(c6ccc(C7=N[C@@H](C)c8nnc(C)n8-c8sc(C)c(C)c87)cc6)C5)C4)nn3)CC2)ccc1C#N (stereo partly drawn) [Compound I-117]	< 500	–	< 500	< 500	–
COc1cc(O[C@H]2CC[C@H](NC(=O)c3ccc(N4CCC5(CCN(c6ccc(C7=NC(Cc8ncco8)c8nnc(C)n8-c8sc(C)c(C)c87)c(C(F)(F)F)c6)CC5)C4)nn3)CC2)ccc1C#N (stereo partly drawn) [Compound I-137]	–	< 500	–	< 500	> 3000
COc1cc(O[C@H]2CC[C@H](NC(=O)c3ccc(N4CCC5(CCN(c6ccc(C7=N[C@@H](C)c8nnc(C)n8-c8sc(C)c(C)c87)cc6)CC5)C4)nc3)CC2)ccc1C#N [Compound I-38]	< 500	–	< 500	< 500	–
COc1cc(O[C@H]2CC[C@H](NC(=O)c3cnc(N4CCC5(CCC(c6ccc(C7=N[C@@H](C)c8nnc(C)n8-c8sc(C)c(C)c87)cc6)CC5)C4)cn3)CC2)ccc1C#N (stereo partly drawn) [Compound I-54, N-[4-(4-cyano-3-methoxy-phenoxy)cyclohexyl]-5-[8-[4-[(9S)-4,5,9,13-tetramethyl-3-thia-1,8,11,12-tetrazatricyclo[8.3.0.0^2,6]trideca-2 (6),4,7,10,12-pentaen-7-yl]phenyl]-2-azaspiro[4.5]decan-2-yl]pyrazine-2-carboxamide]	< 500	–	< 500	< 500	–
COCC[C@@H]1N=C(c2ccc(C3CCC4(CC3)CCN(c3ccc(C(=O)NC5CCC(Oc6ccc(C#N)c(OC)c6)CC5)nn3)C4)cc2)c2c(sc(C)c2C)-n2c(C)nnc21 (stereo partly drawn) [Compound I-29, N-[4-(4-cyano-3-methoxy-phenoxy)cyclohexyl]-6-[8-[4-[(9S)-9-(2-methoxyethyl)-4,5,13-trimethyl-3-thia-1,8,11,12-tetrazatricyclo[8.3.0.0^2,6]trideca-2 (6),4,7,10,12-pentaen-7-yl]phenyl]-2-azaspiro[4.5]decan-2-yl]pyridazine-3-carboxamide]	< 500	–	< 500	< 500	–
COc1cc(O[C@H]2CC[C@H](NC(=O)c3ccc(N4CCC5(CCN(c6ccc(C7=N[C@@H](C)c8nnc(C)n8-c8sc(C)c(C)c87)cc6)C5)CC4)nn3)CC2)ccc1C#N [Compound I-23]	> 3000	–	< 500	> 3000	–
COc1cc(O[C@H]2CC[C@H](NC(=O)c3ccc(N4CCC5(CCC(c6ccc(C7=N[C@@H](C)c8nnc(C)n8-c8sc(C)c(C)c87)cc6OC)CC5)C4)nn3)CC2)ccc1C#N (single isomer, unassigned) [Compound I-66]	< 500	–	< 500	< 500	–
COc1cc(O[C@H]2CC[C@H](NC(=O)c3ccc(N4C[C@]5(C)CN(c6ccc(C7=N[C@@H](C)c8nnc(C)n8-c8sc(C)c(C)c87)cc6)C[C@]5(C)C4)nn3)CC2)ccc1C#N [Compound I-48]	< 500	–	< 500	< 500	–

The next lines start with results.

GI50 (VCaP cells; Homo sapiens, VCaP, 72 h) [nM]	GI50 (VCaP cells; 72 hours) [nM]	SMILES	GI50 ([1]; 72 h) [nM]	GI50 [2] [nM]	GI50 [1] [nM]
< 500	–	Cc1sc2c(c1C)C(c1ccc(C#CC3CC4(C3)CN(c3ccc(C(=O)N[C@H]5CC[C@H](Oc6ccc(C#N)c(OC(F)(F)F)c6)CC5)nn3)C4)cc1)=N[C@@H](C)c1nnc(C)n1-2 [Compound I-12, N-[4-[4-cyano-3-(trifluoromethoxy)phenoxy]cyclohexyl]-6-[6-[2-[4-[(9S)-4,5,9,13-tetramethyl-3-thia-1,8,11,12-tetrazatricyclo[8.3.0.0^2,6]trideca-2 (6),4,7,10,12-pentaen-7-yl]phenyl]ethynyl]-2-azaspiro[3.3]heptan-2-yl]pyridazine-3-carboxamide]	< 500	< 500	–
< 500	–	COc1cc(O[C@H]2CC[C@H](NC(=O)c3ccc(N4CCC5(CCN(c6ccc(C7=N[C@@H](C)c8nnc(C)n8-c8sc(C)c(C)c87)c(C)c6)CC5)C4)nn3)CC2)ccc1C#N [Compound I-72]	< 500	< 500	–
< 500	–	COc1cc(O[C@H]2CC[C@H](NC(=O)c3ccc(N4CC5(CC(C#Cc6ccc(C7=NC(Cc8ncco8)c8nnc(C)n8-c8sc(C)c(C)c87)cc6F)C5)C4)nn3)CC2)ccc1C#N (single isomer, unassigned) [Compound I-123]	–	< 500	> 3000
–	< 500	COc1cc(O[C@H]2CC[C@H](NC(=O)c3ccc(N4CCC5(CCC(c6ccc(C7=N[C@@H](C)c8nnc(C)n8-c8sc(C)c(C)c87)cc6C)CC5)C4)nn3)CC2)ccc1C#N (stereo partly drawn) [Compound I-61]	–	< 500	< 500
< 500	–	CC[C@@H]1N=C(c2ccc(C#CC3CC4(C3)CN(c3ccc(C(=O)N[C@H]5CC[C@H](Oc6ccc(C#N)c(OC(F)(F)F)c6)CC5)nn3)C4)cc2)c2c(sc(C)c2C)-n2c(C)nnc21 [Compound I-6, N-[4-[4-cyano-3-(trifluoromethoxy)phenoxy]cyclohexyl]-6-[6-[2-[4-[(9S)-9-ethyl-4,5,13-trimethyl-3-thia-1,8,11,12-tetrazatricyclo[8.3.0.0^2,6]trideca-2 (6),4,7,10,12-pentaen-7-yl]phenyl]ethynyl]-2-azaspiro[3.3]heptan-2-yl]pyridazine-3-carboxamide]	< 500	< 500	–
500 to 1500	–	COc1cc(O[C@H]2CC[C@H](NC(=O)c3ccc(N4CCC5(CCC(c6ccc(C7=N[C@@H](C)c8nnc(C)n8-c8sc(C)c(C)c87)cc6)C5)CC4)nn3)CC2)ccc1C#N (stereo partly drawn) [Compound I-22]	< 500	< 500	–
< 500	–	COc1cc(O[C@H]2C(C)(C)[C@H](NC(=O)c3cnc(N4CCC5(CC4)CC(Oc4ccc(C6=N[C@@H](Cc7ncco7)c7nnc(C)n7-c7sc(CO)c(C)c76)cc4)C5)nc3)C2(C)C)ccc1C#N [III-2, N-[(1r,3r)-3-(4-cyano-3-methoxy-phenoxy)-2,2,4,4-tetramethyl-cyclobutyl]-2-[2-[4-[(9S)-4-(hydroxymethyl)-5,13-dimethyl-9-(oxazol-2-ylmethyl)-3-thia-1,8,11,12-tetrazatricyclo[8.3.0.0^2,6]trideca-2 (6),4,7,10,12-pentaen-7-yl]phenoxy]-7-azaspiro[3.5]nonan-7-yl]pyrimidine-5-carboxamide]	< 500	< 500	–
